Test results taken from ChEMBL document CHEMBL1152047, “(cis)-3-methyl-1,5-benzothiazepine-4-ones: potent analogs of the calcium channel blocker diltiazen” (Bioorg Med Chem Lett, 1993).

Species on record: Oryctolagus cuniculus
Assay: Vasorelaxant potency determined by relaxation of potassium depolarized rabbit aortic strips
Assay type: functional
Conditions: Aorta

Row | IC50 [nM] | SMILES
1 | 82 | COc1ccc([C@@H]2Sc3ccccc3N(CCN(C)C)C(=O)[C@@H]2C)cc1
2 | 120 | COc1ccc([C@@H]2Sc3cc(OC)ccc3N(CCN(C)C)C(=O)[C@@H]2OC(C)=O)cc1
3 | 22 | COc1ccc([C@@H]2Sc3cc(C(F)(F)F)ccc3N(CCN(C)C)C(=O)[C@@H]2C)cc1
4 | 10 | COc1ccc([C@@H]2Sc3cc(OC)ccc3N(CCN(C)C)C(=O)[C@@H]2C)cc1
